PubChem BioAssay (NCI)
Several values for one entry are separate records, joined by “and”; a condition that tells them apart may be missing. Equal entries are not always repeated.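 All cell lines were grown in 96-well plates and treated with compound for 48 hours. Abbreviation: GI50, concentration required for 50% inhibition of growth. At the TGI there is no net growth.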 Where a SMILES comes first, the peptide text is derived from it. [ ]: non-standard residue; d: D form. The star is where a group is joined. ξ: configuration not given here. X6 = FC(F)(F)c1cc(NC(=S)*)cc(C(F)(F)F)c1; ξF = NC(Cc1ccccc1)C(=O)O

Columns and labels:
Test in all cases: DTP human tumour cell line panel, 48 h
BT-549 breast = test system: BT-549 breast
HS 578T breast = test system: HS 578T breast
MCF7 breast = test system: MCF7 breast
MDA-MB-231 breast = test system: MDA-MB-231 breast
MDA-MB-435 = test system: MDA-MB-435
T-47D breast = test system: T-47D breast

Compound | GI50 (BT-549 breast) | TGI (BT-549 breast) | GI50 (HS 578T breast) | TGI (HS 578T breast) | GI50 (MCF7 breast) | TGI (MCF7 breast) | GI50 (MDA-MB-231 breast) | TGI (MDA-MB-231 breast) | GI50 (MDA-MB-435) | TGI (MDA-MB-435) | GI50 (T-47D breast) | TGI (T-47D breast)
O=C(/C=C/C12c3ccccc3C(c3ccccc31)C1C(=O)NC(=O)C12)c1ccncc1 (stereo unspecified) | 2.06 µM | 5.93 µM | 3.04 µM | 19.8 µM | 2.25 µM | 12.6 µM | 3.13 µM | 12.7 µM | 2.9 µM | 8.36 µM | 2.82 µM | 12.9 µM
OCc1ccc(N2CCC2c2ccc(F)cc2)cc1Cl (stereo unspecified) | 21.2 µM | 49.9 µM | 26.7 µM | > 86.8 µM | 0.69 µM | 24.5 µM | 22.6 µM | > 68.3 µM | 26.6 µM | > 75.7 µM | 0.209 µM | 1.72 µM
COc1ccc2c(c1)/C(=C/c1c(C)nc3sc(C)nn13)C(=O)N2 | 5.69 µM | > 100 µM | 5.16 µM | > 68.3 µM | 1.61 µM | > 100 µM | 7.59 µM | > 100 µM |  |  | 2.53 µM | > 100 µM
CO[C@H](C(=O)[C@@H](O)[C@@H](C)O)[C@@H]1Cc2cc3cc(O[C@H]4C[C@@H](O[C@H]5C[C@@H](O)[C@H](O)C(C)O5)[C@H](O)C(C)O4)c(C)c(O)c3c(O)c2C(=O)[C@H]1O[C@H]1C[C@@H](O[C@H]2C[C@@H](O[C@H]3C[C@](C)(O)C(=O)C(C)O3)[C@@H](O)C(C)O2)[C@H](O)C(C)O1 (stereo partly specified) | 0.0356 µM | 0.157 µM | 0.0723 µM | 8.25 µM | 0.0208 µM | > 33.2 µM | 0.145 µM | 9.97 µM | 0.0646 µM | 0.252 µM | 0.0663 µM | 
Cc1nc2ccccc2c(N)c1-c1cc(C)c2c(C)nc3ccccc3c2n1 | 1.05 µM | 2.46 µM | 0.891 µM |  | 0.675 µM | 2.06 µM | 0.298 µM | 0.904 µM | 1.51 µM | 2.86 µM | 1.78 µM | 4.04 µM
NC(=O)c1cccc2cn(-c3ccc([C@@H]4CCCNC4)cc3)nc12 | 18.8 µM | 40.9 µM | 21.5 µM | 76.7 µM | 6.59 µM | 23.9 µM | 11.7 µM | 31.2 µM | 12.7 µM | 26.5 µM | 12.9 µM | 35.5 µM
Cc1cc(I)cc(CN(C)CCCCN2CCCCC2)c1O | 8.05 µM | 21.5 µM | 8.9 µM | 23.5 µM | 13.6 µM | 30 µM | 16.3 µM | 43 µM | 3.5 µM | 12.9 µM | 16.1 µM | 49.3 µM
COC1=CC(c2ccc[nH]2)=N/C1=C\c1[nH]c(C)c(C(=O)OC(C)C)c1C | 0.061 µM | 2.68 µM | 0.0445 µM | 0.34 µM | 0.0487 µM | 1.9 µM | 0.0252 µM | 0.274 µM | 0.0349 µM | 0.386 µM | 0.0522 µM | 1.74 µM
COc1cc(/C=N/NC(=O)c2ccc(C(F)(F)F)nc2Nc2ccc(Cl)cc2C)ccc1O | 1.34 µM | 9.69 µM | 3.53 µM | 16.5 µM | 2.02 µM | 11.6 µM | 0.939 µM | 10.3 µM | 3.08 µM | 11 µM | 1.49 µM | 18 µM
CCN(CCO)CC1CCCC2CCCCC21 (stereo unspecified) |  | > 100 µM |  | > 100 µM |  | > 100 µM |  | > 100 µM |  | > 100 µM |  | > 100 µM
COc1ccc(-c2nc3sccn3c2/C(N)=N/C(=N)N)cc1OC | 22.8 µM | 43.3 µM | 35.5 µM | > 100 µM | 56.9 µM | > 100 µM | 17.8 µM | 39.3 µM | 33.1 µM | > 100 µM | 29.1 µM | > 100 µM
O=C1C=C(Cl)C(=O)C(c2ccc(Cl)cc2)=C1 |  | 46 µM |  | 74.9 µM |  | 41.6 µM |  | 36 µM |  | 46.6 µM |  | 84.4 µM
Cc1coc2c1CC1(C)C(CCC(O)C1C)C2 (stereo unspecified) |  | > 100 µM |  | > 100 µM |  | > 100 µM |  | > 100 µM |  | > 100 µM |  | > 100 µM
COC(=O)[C@@H](NC(=O)CNC(=O)[C@H]1CCCN1C(=O)C(Cc1ccccc1)NC(=S)Nc1cc(C(F)(F)F)cc(C(F)(F)F)c1)C(C)C (stereo partly specified) (X6-[ξF][dP]GV-OMe) | 1.85 µM | 3.78 µM | 2.47 µM | 8.49 µM | 2.86 µM | 11.3 µM | 1.48 µM | 3.14 µM | 2.79 µM | 8.12 µM | 3.87 µM | 28.8 µM
CCCCCN(CCCCC)CCCNc1c2c(nc3ccc(Cl)cc13)CCCC2 | 11.2 µM | 23.4 µM |  |  | 2.46 µM | 8.34 µM | 2.76 µM | 13.1 µM | 2.23 µM | 6.56 µM | 2.6 µM | 6.17 µM
CCOC(=O)[C@]1(OC(C)=O)C[C@H](OC(C)=O)[C@@H](C(F)COP(=O)(OCc2ccccc2)OCc2ccccc2)O1 (stereo partly specified) |  | > 100 µM |  | > 100 µM | 20.8 µM and > 100 µM | 45.6 µM and > 100 µM |  | > 100 µM | 18.3 µM and 79.2 µM | 38.2 µM and > 100 µM | 34.2 µM and > 100 µM | 93.1 µM and > 100 µM
COC1CCC(N2C(=O)CNc3ncc(-c4ccc(C(C)(C)O)nc4)nc32)CC1 (stereo unspecified) | 0.329 µM and 0.0572 µM | 3.6 µM and 0.991 µM | 0.407 µM and 0.137 µM | 3.68 µM and 0.624 µM | 0.305 µM and 0.127 µM | > 10 µM and 12.6 µM | 0.52 µM and 0.283 µM | 4.8 µM and 25.3 µM | 0.668 µM and 0.167 µM | 3.28 µM | 0.159 µM and 0.0258 µM | 0.786 µM and 0.306 µM
CC(C)CCC[C@@H](C)[C@H]1CC[C@H]2[C@@H]3CC=C4C[C@@H](C(C(=O)O)C(=O)O)CC[C@]4(C)[C@H]3CC[C@]12C | 0.197 µM | 2.21 µM | 0.242 µM | 2.58 µM | 0.386 µM | 5.37 µM | 0.214 µM | 0.838 µM | 0.0721 µM | 0.188 µM | 0.188 µM | 2.8 µM
O=C1C(Cl)=C(Nc2cccc(Cl)c2)C(=O)N1Cc1ccc(Cl)cc1Cl | 0.0663 µM | 7.48 µM | 1.23 µM | 22.9 µM | 1.24 µM | 41.5 µM | 0.176 µM | 12.9 µM | 1.24 µM | 16 µM | 1.72 µM | > 41.8 µM
COc1cc(CNc2cnc3cc(N)cc(N)c3n2)cc(OC)c1 | 20.2 µM | 51.4 µM | 17 µM | 52 µM | 24.5 µM | > 100 µM | 5.58 µM | 20.4 µM | 21.1 µM | 39.5 µM |  | 
